Experimental findings from patent US8921307B2, “Synthetic linear apelin mimetics for the treatment of heart failure” (priority 2012, dated 2014) are described below.

Data set [1] in a line: Surrogate Activity-Based Plasma Stability Assay. It is filed as in vitro ADME. The conditions noted are these: rat, Surrogate activity-based Plasma stability t½. As for the experimental part: Stability half-life was then calculated by the formula, t½=0.693÷k Surrogate Activity-Based Plasma Stability Assay: […]
2) Calculate slope of value above and […]

In the next data set the target is T1, hAPJ (Homo sapiens, UniProt P35414).
T1 sequence (P35414 1-380): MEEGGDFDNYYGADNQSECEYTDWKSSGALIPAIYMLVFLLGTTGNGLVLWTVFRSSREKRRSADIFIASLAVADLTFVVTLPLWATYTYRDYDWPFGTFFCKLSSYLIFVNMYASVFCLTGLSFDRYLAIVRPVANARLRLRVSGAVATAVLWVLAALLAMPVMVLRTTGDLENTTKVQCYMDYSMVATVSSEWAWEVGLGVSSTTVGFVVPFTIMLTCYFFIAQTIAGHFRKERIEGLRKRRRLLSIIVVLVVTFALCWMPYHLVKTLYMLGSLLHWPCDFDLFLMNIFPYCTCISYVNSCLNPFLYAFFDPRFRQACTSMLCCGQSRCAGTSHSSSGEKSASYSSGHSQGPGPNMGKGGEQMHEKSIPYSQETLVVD
Put plainly: hAPJ Calcium Flux Assay. Type of data set: cell-based. The conditions noted are these: Chem-5 APJ stable cells, FLIPR calcium flux stimulation; read-out: hAPJ Ca^2+ Flux EC50. The procedure: Chem-5 APJ stable cells (Millipore # HTS068C) were plated in 384-well format with 10,000 cells/well in 25 ul growth media, then grown 24 hours in a 37° C. tissue culture incubator. One hour before the assay, 25 ul/well FLIPR Calcium 4 dye (Molecular Devices R8142) with 2.5 mM probenecid was added, and cells were incubated one hour in a 37° C. tissue culture incubator. Peptides were solubilized in HBSS, HEPES & 0.1% BSA buffer, and serially-diluted 10-fold, from 50 uM to […], in triplicate. FLIPR Tetra was used to add peptide to the cells with dye (1:5, for final peptide concentrations ranging from 10 uM to […]). FLIPR dye inside the cells emitted fluorescence after binding to calcium, while fluorescence from outside the cells was masked. Fluorescence was measured using 470-495 excitation and 515-575 emission wavelengths on the FLIPR Tetra. Readings were done for 3 minutes total, beginning 10 seconds before the peptide addition. Maximum-minimum values were calculated and plotted for each peptide concentration, and GraphPad prism software was used to calculate EC50 values at the curve inflection points, for calcium flux stimulation by peptides.

Where a SMILES comes first, the peptide text is derived from it. [ ]: non-standard residue; d: D form. pGlu = O=C1CC[C@@H](C(=O)O)N1; dNle = CCCC[C@@H](N)C(=O)O; Aib = CC(C)(N)C(=O)O

For orientation: half-life means how long it takes for the measured level to halve. Low readings indicate fast loss, high ones slow loss. The EC50 is the concentration at which the effect is half-maximal. In turn, `CCCC[C@@H](NC(=O)[C@@H]1CCCN1C(=O)CNC(=O)[C@H](CCC(=O)O)NC(=O)[C@H](Cc1c[nH]cn1)NC(=O)[C@@H](C)NC(=O)[C@H](CC(C)C)NC(=O)[C@H](CCCNC(=N)N)NC(=O)[C@@H]1CCCN1C(=O)[C@H](CCCNC(=N)N)NC(=O)[C@@H]1CCC(=O)N1)C(=O)N[C@H](C)C(=O)N[C@H](Cc1ccccc1)C(=O)O` [Example 60, pE-R-P-R-L-a-H-E-G-P-nle-a-f-OH] ([pGlu]RPRL[dA]HEGP[dNle][dA][dF]-OH) returned a half-life in data set [1] of more than 16.7 h. Further, the EC50 at hAPJ amounted to 200 nM.
In data set [1], `CCCC[C@@H](NC(=O)[C@@H]1CCCN1C(=O)CNC(=O)[C@H](CCCCN)NC(=O)[C@H](Cc1c[nH]cn1)NC(=O)[C@@H](CC)NC(=O)[C@H](CC(C)C)NC(=O)[C@H](CCCNC(=N)N)NC(=O)[C@@H]1CCCN1C(=O)[C@H](CCCNC(=N)N)NC(=O)[C@@H]1CCC(=O)N1)C(=O)N[C@H](C)C(=O)N[C@H](Cc1ccccc1)C(=O)O` [Example 44, pE-R-P-R-L-abu-H-K-G-P-nle-a-f-OH] gave a half-life of 9.25 h. In addition, on hAPJ, the EC50 was found to be 3 nM.
In data set [1], `CCCC[C@@H](NC(=O)[C@@H]1CCCN1C(=O)CNC(=O)[C@H](CCCCN)NC(=O)[C@@H](Cc1ccccc1)NC(=O)[C@H](CO)NC(=O)[C@H](CC(C)C)NC(=O)[C@H](CCCNC(=N)N)NC(=O)[C@@H]1CCCN1C(=O)[C@H](CCCNC(=N)N)NC(=O)[C@@H]1CCC(=O)N1)C(=O)N[C@H](C)C(=O)N[C@H](Cc1ccccc1)C(=O)O` [Example 55, pE-R-P-R-L-S-f-K-G-P-nle-a-f-OH] ([pGlu]RPRLS[dF]KGP[dNle][dA][dF]-OH) displayed a half-life of 1.68 h. In addition, the EC50 at hAPJ came to 72.8 nM.
The matching figures for `CCCC[C@@H](NC(=O)[C@@H]1CCCN1C(=O)CNC(=O)[C@H](CCCCN)NC(=O)[C@H](Cc1c[nH]cn1)NC(=O)[C@@H](C)NC(=O)[C@H](CC(C)C)NC(=O)[C@H](CCCNC(=N)N)NC(=O)[C@@H]1CCCN1C(=O)[C@@H](CCCNC(=N)N)NC(=O)[C@@H]1CCC(=O)N1)C(=O)N[C@H](C)C(=O)N[C@H](Cc1ccccc1)C(=O)O` [Example 3, pE-r-P-R-L-a-H-K-G-P-nle-a-f-OH]: more than 16.7 h and 797 nM.
For `CCCC[C@@H](NC(=O)[C@@H]1CCCN1C(=O)CNC(=O)[C@H](CCCCN)NC(=O)[C@H](Cc1c[nH]cn1)NC(=O)[C@@H](C)NC(=O)[C@H](CC(C)C)NC(=O)[C@H](CCCNC(=N)N)NC(=O)[C@@H]1CCCN1C(=O)[C@H](CCCNC(=N)N)NC(=O)[C@@H]1CCC(=O)N1)C(=O)N[C@H](C)C(=O)N[C@H](Cc1ccc(O)cc1)C(=O)O` [Example 21, pE-R-P-R-L-a-H-K-G-P-nle-a-y-OH] ([pGlu]RPRL[dA]HKGP[dNle][dA][dY]-OH) the same measures were more than 16.7 h and 0.9 nM.
The matching figures for `CCCC[C@@H](NC(=O)[C@@H]1CCCN1C(=O)CNC(=O)[C@H](CCCCN)NC(=O)C(C)(C)NC(=O)[C@@H](C)NC(=O)[C@H](CC(C)C)NC(=O)[C@H](CCCNC(=N)N)NC(=O)[C@@H]1CCCN1C(=O)[C@H](CCCNC(=N)N)NC(=O)[C@@H]1CCC(=O)N1)C(=O)N[C@H](C)C(=O)N[C@H](Cc1ccccc1)C(=O)O` [Example 15, pE-R-P-R-L-a-Aib-K-G-P-nle-a-f-OH] ([pGlu]RPRL[dA][Aib]KGP[dNle][dA][dF]-OH): more than 16.7 h and 2.1 nM.
In data set [1], `CCCC[C@@H](NC(=O)[C@@H]1CCCN1C(=O)CNC(=O)[C@H](CCCCN)NC(=O)[C@@H](Cc1c[nH]cn1)NC(=O)[C@H](CO)NC(=O)[C@H](CC(C)C)NC(=O)[C@H](CCCNC(=N)N)NC(=O)[C@@H]1CCCN1C(=O)[C@H](CCCNC(=N)N)NC(=O)[C@@H]1CCC(=O)N1)C(=O)N[C@H](C)C(=O)N[C@H](Cc1ccccc1)C(=O)O` [Example 56, pE-R-P-R-L-S-h-K-G-P-nle-a-f-OH] ([pGlu]RPRLS[dH]KGP[dNle][dA][dF]-OH) gave a half-life of 5.52 h. On hAPJ, the EC50 was found to be 6.8 nM.
